These are literature values, as cited in US12390507B1, “Method to provide consistent product batches active components for alkaloids of kratom plants” (priority 2021, dated 2025).

Data set [1] has as its system opioid receptors.
Data set [2] relates to α2-adrenergic receptor. Particulars: α2 versus α1.
Data set [3] has as its system α1-adrenergic receptor. The conditions noted are these: α1 versus α2 adrenergic receptor antagonist.

Take `CC[C@@H]1CN2CCc3c([nH]c4cccc(O)c34)[C@@H]2C[C@@H]1/C(=C\OC)C(=O)OC` [9-Hydroxycorynantheidine]: the “maximum inhibition of electrically stimulated guinea-pig ileum contraction” value in data set [1] (compared with mitragynine) is given as “weaker than that of mitragynine”. In data set [1] (one study, quoted), the “effect on electrically stimulated guinea-pig ileum contraction” value is given as “inhibited”. Moreover, the “effect of naloxone on the inhibition of guinea-pig ileum contraction” value in data set [1] (with naloxone) is “antagonized by naloxone”.
As to `COC(=O)[C@H]1[C@H]2C[C@H]3c4[nH]c5ccccc5c4CCN3C[C@H]2CC[C@@H]1O` [rauwolscine], the “higher affinity for the α2-adrenergic receptor over the α1-adrenergic” value in data set [2] was 30 ×.
On to `COC(=O)[C@@H]1[C@H]2C[C@H]3c4[nH]c5ccccc5c4CCN3C[C@@H]2CC[C@@H]1O` [yohimbine], for which the “higher affinity for the α2-adrenergic receptor over the α1-adrenergic” value in data set [2] was 30 ×.
On to Corynantheidine, for which the “greater affinity for the α1-adrenergic receptor (over α2-adrenergic receptor)” value in data set [3] is reported as 10 ×.
